Data set [1] can be described thus: urinary excretion and organ distribution in mice with increasing doses of inactive carrier. The settings on record: inactive carrier for labelled ruthenocenoylglycine.
A short description of data set [2]: organ distribution of radioactivity in mouse. The note with it: approx. 0.5 umole/kg.
Data set [3] in a line: renal clearance after administration to dogs (single injection method). The data set is classed as in vivo, dog (beagle). The settings on record: for clearance in words: dog; for clearance: intravenous. The method, then:
The renal clearance by tubular excretion is a measure for the renal function was determined in two dogs, viz. beagles with body weights of 13.8 kg (dog a) and 14.8 kg (dog b) respectively by the generally recognized single injection method, in broad outline as described in Example VII. As radioactive materials were used iodine-131 labelled o-iodohippuric acid sodium salt (I-131 Hippuran), indium-111 DTPA (diethylene triamine pentaacetic acid) and ruthenium-97 labelled ruthenocenoylglycine. Indium-111DTP is also recommended to be used in radiodiagnostic compositions for examination of the renal glomerular filtration function. The time intervals between the various administrations were chosen in such a way, that no interference between the radioactive materials could occur. The radioactive materials were administered intraveneously, blood samples were collected 5, 10, 15, 30, 60 and 90 minutes after administration. The emitted radioactivity was determined with a gamma camera. The decreasing radioactivity of the successive blood samples is a measure for the elimination of the radioactive compound from the blood.

The conditions of data set [4]: rabbit, in vivo.
The conditions of data set [5]: rat, in vivo; cited from earlier work.

The source of these data is US4584186A, “Radiolabelled metallocene derivatives” (Mallinckrodt, Diagnostica (Holland) B.V., priority 1982, dated 1986).

Structures can show the parent of a compound that is named as a salt.

For `Nc1ccc(C(=O)NCC(=O)O)cc1` [para-aminohippuric acid (salt), para-aminohippuric acid], the “results when used as inactive carrier instead of ruthenocenoyl- or ferrocenoylglycine” value in data set [1] is recorded as “Comparable results”.

Turning to `CCOC(=O)CNC(=O)[c-]1cccc1.[Ru+2].c1cc[cH-]c1` [Rc glycine ester, ruthenocenoyl ethylglycinate, labelled with ruthenium-103], in data set [2] (after 1 hour), the 103Ru conc. kidney stood at 141 dose/% body/wt, the 103Ru conc. liver was 43 dose/% body/wt and the 103Ru conc. lung came out at 6 dose/% body/wt. Besides, in data set [2] (after 3 hours), the 103Ru conc. kidney was 90 dose/% body/wt, the 103Ru conc. liver is 24 dose/% body/wt and the 103Ru conc. lung was found to be 2.6 dose/% body/wt. In addition, in data set [2] (after 6 hours), the 103Ru conc. kidney is 125 dose/% body/wt, the 103Ru conc. liver is given as 3.5 dose/% body/wt and the 103Ru conc. lung was 3.0 dose/% body/wt.

Turning to `O=C(O)CNC(=O)[c-]1cccc1.[Ru+2].c1cc[cH-]c1` [Ru-97 ruthenocenoylglycine, ruthenium-97 labelled ruthenocenoylglycine], the clearance in words result in data set [3] (in vivo) was “faster than that of labelled o-iodohippuric acid salt”.

Take `O=C(O)CNC(=O)[c-]1cccc1.[Ru+2].c1cc[cH-]c1` [Rc glycine, ruthenocenoylglycine, labelled with ruthenium-103]: in data set [4], the “accumulation in the kidneys and excretion” value is “very rapid accumulation in the kidneys followed by a rapid excretion”; the “renal clearance (general statement)” value is reported as “even faster than that of iodohippuric acid sodium salt labelled with iodine-125”; the “renal clearance compared with iodine-125 labelled o-iodohippuric acid sodium salt” value is “cleared more rapidly than iodine-125 labelled o-iodohippuric acid sodium salt”.

As to “indium-111 DTPA (diethylene triamine pentaacetic acid) [In - 111 DTPA]”, the clearance came out at 79.6 mL/min in data set [3] (dog a, beagle 13.8 kg) and 62.2 mL/min in data set [3] (dog b, beagle 14.8 kg). Moreover, the clearance in words entry in data set [3] (comparison of the three radioactive compounds) is “comparatively slow”.

For `[Ru+2].c1cc[cH-]c1.c1cc[cH-]c1` [ruthenium-103 labelled ruthenocene, ruthenocene], the “accumulation of radioactivity in lung and liver relative to kidney” value in data set [5] is “at least equal amounts as in the kidney”.

Take `O=C(O)CNC(=O)c1ccccc1I` [ortho-iodohippuric acid (salt), ortho-iodohippuric acid]: the “results when used as inactive carrier instead of ruthenocenoyl- or ferrocenoylglycine” value in data set [1] is recorded as “Comparable results”.

Take `NC(=O)[c-]1cccc1.[Ru+2].c1cc[cH-]c1` [ruthenocene monocarboxylic acid amide]: in data set [5], the “accumulation of radioactivity in lung and liver relative to kidney” value is on record as “at least equal amounts as in the kidney”.

On to `O=C(O)CNC(=O)[c-]1cccc1.O=C(O)CNC(=O)[c-]1cccc1.[Ru+2]` [ruthenocenoyl-1,1'-diglycine], for which, in data set [4], the “accumulation in the kidneys and excretion” value is reported as “very rapid accumulation in the kidneys followed by a rapid excretion”.
